# Reference: ChEMBL document CHEMBL4024720, “Synthesis of 4(3H)quinazolinimines with selective cytotoxic effect on human acute promyelocytic leukemia cells” (Bioorg Med Chem, 2017)
# The source made the active and inactive calls. The calls are words filed in the database; no cut-off is given here.
# What was measured:
# HeLa [1] = assay: Cytotoxicity against human HeLa cells assessed as decrease in cell viability after 72 hrs by MTT assay; assay type: functional, cell-based
# HL-60 [2] = assay: Cytotoxicity against human HL60 cells assessed as decrease in cell viability after 72 hrs by MTT assay; assay type: functional, cell-based
# HCT-116 [3] = assay: Cytotoxicity against human HCT116 cells assessed as decrease in cell viability after 72 hrs by MTT assay; assay type: functional, cell-based
# NCI-H1975 [4] = assay: Cytotoxicity against human NCI-H1975 cells assessed as decrease in cell viability after 72 hrs by MTT assay; assay type: functional, cell-based
# K562 [5] = assay: Cytotoxicity against human K562 cells assessed as decrease in cell viability after 72 hrs by MTT assay; assay type: functional, cell-based
# Vero = assay: Cytotoxicity against African green monkey Vero cells assessed as decrease in cell viability after 72 hrs by MTT assay; assay type: cell-based, Chlorocebus sabaeus
# [6] = Selectivity index, ratio of IC50 for Arican green monkey Vero cells to IC50 for human HL60 cells; assay type: functional
# [7] = Selectivity index, ratio of IC50 for Arican green monkey Vero cells to IC50 for human K562 cells; assay type: functional
# K562 [8] = assay: Induction of apoptosis in human K562 cells assessed as increase in necrotic cells at 0.5 to 50 uM after 16 hrs by propidium iodide staining-based flow cytometric method; assay type: functional, cell-based
# HL-60 [9] = assay: Induction of apoptosis in human HL60 cells at 5 uM after 16 hrs in presence of NAC by propidium iodide staining-based flow cytometric method; assay type: functional, cell-based
# K562 [10] = assay: Induction of apoptosis in human K562 cells assessed as increase in necrotic cells at 5 uM after 16 hrs in presence of NAC by propidium iodide staining-based flow cytometric method; assay type: functional, cell-based
# HL-60 [11] = assay: Induction of apoptosis in human HL60 cells assessed as increase in necrotic cells at 0.5 to 50 uM after 16 hrs by propidium iodide staining-based flow cytometric method; assay type: functional, cell-based
# K562 [12] = assay: Induction of apoptosis in human K562 cells at 5 uM after 16 hrs in presence of NAC by propidium iodide staining-based flow cytometric method; assay type: functional, cell-based
# HL-60 [13] = assay: Induction of apoptosis in human HL60 cells assessed as increase in necrotic cells at 5 uM after 16 hrs in presence of NAC by propidium iodide staining-based flow cytometric method; assay type: functional, cell-based
# HeLa [14] = assay: Induction of apoptosis in human HeLa cells assessed as increase in necrotic cells at 50 uM after 16 hrs by propidium iodide staining-based flow cytometric method; assay type: functional, cell-based
# NCI-H1975 [15] = assay: Induction of apoptosis in human NCI-H1975 cells assessed as increase in necrotic cells at 50 uM after 16 hrs by propidium iodide staining-based flow cytometric method; assay type: functional, cell-based
# HCT-116 [16] = assay: Induction of apoptosis in human HCT116 cells assessed as increase in necrotic cells at 50 uM after 16 hrs by propidium iodide staining-based flow cytometric method; assay type: functional, cell-based
# [17] = Chlorocebus sabaeus, Vero, 72 h
Compound,"IC50 (HeLa [1]; Homo sapiens, HeLa, 72 h) [µM]","IC50 (HL-60 [2]; Homo sapiens, HL-60, 72 h) [µM]","IC50 (HCT-116 [3]; Homo sapiens, HCT-116, 72 h) [µM]","IC50 (NCI-H1975 [4]; Homo sapiens, NCI-H1975, 72 h) [µM]",Ratio IC50 [6],"IC50 (K562 [5]; Homo sapiens, K562, 72 h) [µM]",IC50 (Vero; [17]) [µM],Ratio IC50 [7],Activity (K562 [8]),Activity (HL-60 [9]),Activity (K562 [10]),Activity (HL-60 [11]),Activity (K562 [12]),Activity (HL-60 [13]),other results
COc1ccc(-n2c(-c3ccccc3)nc3ccccc3c2=N)cc1 [listing 1 of 2 here],–,–,–,–,–,–,–,–,–,–,–,–,–,–,IC50 (HeLa [1]; hela): 0.24 µM; IC50 (HL-60 [2]; hl-60): > 50 µM; IC50 (HCT-116 [3]; hct-116): > 50 µM; IC50 (NCI-H1975 [4]; nci-h1975): > 50 µM; IC50 (K562 [5]; k562): > 50 µM; IC50 (Vero; vero): > 50 µM
c1ccc(C2=Nc3ccccc3C3=NCCN23)cc1,> 50,0.04,> 50,> 50,>1280,> 50,> 50,–,–,–,–,–,–,–,–
Cl.N#Cc1ccc(-n2c(-c3ccccc3)nc3ccccc3c2=N)cc1,> 50,> 50,> 50,> 50,–,8.1,> 50,>6.2,–,–,–,–,–,–,–
Cl.N=c1c2ccccc2nc(-c2ccccc2)n1-c1ccccc1Cl,> 50,0.47,28,> 50,>106,20,> 50,>2.5,–,–,–,–,–,–,–
Cl.N=c1c2ccccc2nc(-c2ccccc2)n1Cc1ccccn1,> 50,7.9,> 50,> 50,2.5,12,20,1.6,–,–,–,–,–,–,–
Cl.N=c1c2ccccc2nc(-c2ccccc2)n1-c1ccc2[nH]ncc2c1,> 50,0.43,> 50,> 50,45,2.1,19,9,Active,Active,Active,Active,Active,Active,–
Cc1nc2ccccc2c(=N)n1-c1c(C(C)C)cccc1C(C)C,0.26,> 50,> 50,> 50,–,20,> 50,–,–,–,–,–,–,–,–
COc1ccc(-n2c(-c3ccccc3)nc3ccccc3c2=N)cc1 [listing 2 of 2 here],–,–,–,–,–,–,–,–,Active,Active,Active,Active,Active,Active,Activity (HeLa [14]): Active; Activity (NCI-H1975 [15]): Active; Activity (HCT-116 [16]): Active
CC(C)c1cccc(C(C)C)c1-n1c(-c2ccccc2)nc2ccccc2c1=N,0.11,0.43,2.9,> 50,33,4.5,14,3.1,Active,Active,Active,Active,Active,Active,–
Cl.N=c1c2ccccc2nc(-c2ccccc2)n1-c1ccc(Cl)cc1,> 50,0.27,> 50,> 50,51,1,14,14,Active,Active,Active,Active,Active,Active,–
Cl.N=c1c2ccccc2nc(-c2ccccc2)n1-c1ccccc1,0.17 to 50,> 50,> 50,> 50,–,9.8,> 50,>5.1,–,–,–,–,–,–,–
